Measurements published in US9499519B2, “Fused pyrimidine compounds and use thereof” (Medivation Technologies, Inc., priority 2012, dated 2016).

Tested on: Akt phosphorylation induced by IGF-1R
Assay: Western blot analysis of Akt phosphorylation induced by IGF-1 in HT-29 cells
Assay type: cell-based, Human
Conditions: for Levels of phosphorylated AKT in treated cells (pAKT/actin): HT-29 cells, IGF-1; for p-AKT relative to levels with 0.1 nM compound: Table B2 lower part; for Normalized phosphorylated AKT (relative to actin) levels relative to 0.1 nM compound treatment: Table B2 upper part
Protocol: Inhibition of Akt phosphorylation induced by IGF-1R was studied by western blot analysis. Human colon carcinoma HT-29 cells were seeded at a density of 8×10^4 cells/well in a 24-well plate and grown in DME/F12 media containing 10% FBS for 24 h. The cells were then depleted of serum by incubation in DME/F12 media lacking FBS for 24 h. […] […] Lysed cells were centrifuged at 13,000 rpm for 15 min and the protein concentration soluble fraction (supernatant) of each sample was determined using a BCA protein assay (Pierce).

| SMILES | Levels of phosphorylated AKT in treated cells (pAKT/actin) (0.1 nM compound) | p-AKT relative to levels with 0.1 nM compound (0.1 nM) | Normalized phosphorylated AKT (relative to actin) levels relative to 0.1 nM compound treatment (0.1 nM) | Levels of phosphorylated AKT in treated cells (pAKT/actin) (1 nM compound) | p-AKT relative to levels with 0.1 nM compound (1 nM) | Normalized phosphorylated AKT (relative to actin) levels relative to 0.1 nM compound treatment (1 nM) | Levels of phosphorylated AKT in treated cells (pAKT/actin) (10 nM compound) | p-AKT relative to levels with 0.1 nM compound (10 nM) | Normalized phosphorylated AKT (relative to actin) levels relative to 0.1 nM compound treatment (10 nM) | Levels of phosphorylated AKT in treated cells (pAKT/actin) (100 nM compound) | p-AKT relative to levels with 0.1 nM compound (100 nM) | Normalized phosphorylated AKT (relative to actin) levels relative to 0.1 nM compound treatment (100 nM) |
| --- | --- | --- | --- | --- | --- | --- | --- | --- | --- | --- | --- | --- |
| O=C(Nc1ccc(F)nc1)C1CCCN1c1nc2c(c(Nc3cc(C4CC4)[nH]n3)n1)CCC2 (racemic) [Compound 2, 1-(4-(5-cyclopropyl-1H-pyrazol-3-ylamino)-6,7-dihydro-5H-cyclopenta[d]pyrimidin-2-yl)-N-(6-fluoropyridin-3-yl)pyrrolidine-2-carboxamide] | 1.04 | 1.0 | 1.0 | 0.91 | 0.9 | 0.9 | 0.07 | 0.1 | 0.1 | 0.00 | 0.0 | 0.0 |
| O=C(Nc1ccc(F)nc1)C1CCCN1c1nc2c(c(Nc3cc(C4CCCC4)[nH]n3)n1)CCC2 (racemic) [Compound 4, 1-(4-(3-cyclopentyl-1H-pyrazol-5-ylamino)-6,7-dihydro-5H-cyclopenta[d]pyrimidin-2-yl)-N-(6-fluoropyridin-3-yl)pyrrolidine-2-carboxamide] | 1.92 | 1.0 | 1.0 | 1.59 | 0.8 | 0.8 | 1.01 | 0.5 | 0.5 | 0.06 | 0.0 | 0.0 |
| O=C(Nc1cnccn1)C1CCCN1c1nc2c(c(Nc3cc(C4CC4)[nH]n3)n1)CCC2 (racemic) [Compound 6, 1-(4-(3-cyclopropyl-1H-pyrazol-5-ylamino)-6,7-dihydro-5H-cyclopenta[d]pyrimidin-2-yl)-N-(pyrazin-2-yl)pyrrolidine-2-carboxamide] | 1.54 | 1.0 | 1.0 | 0.22 | 0.1 | 0.1 | 0.01 | 0.0 | 0.0 | 0.01 | 0.0 | 0.0 |
| O=C(Nc1cncnc1)C1CCCN1c1nc2c(c(Nc3cc(C4CC4)[nH]n3)n1)CCC2 (racemic) [Compound 7, 1-(4-(3-cyclopropyl-1H-pyrazol-5-ylamino)-6,7-dihydro-5H-cyclopenta[d]pyrimidin-2-yl)-N-(pyrimidin-5-yl)pyrrolidine-2-carboxamide] | 1.45 | 1.0 | 1.0 | 2.08 | 1.4 | 1.4 | 1.09 | 0.7 | 0.7 | 1.20 | 0.8 | 0.8 |
| O=C(Nc1ccc(F)nc1)C1CCCCN1c1nc2c(c(Nc3cc(C4CC4)[nH]n3)n1)CCC2 (racemic) [Compound 9, 1-(4-(3-cyclopropyl-1H-pyrazol-5-ylamino)-6,7-dihydro-5H-cyclopenta[d]pyrimidin-2-yl)-N-(6-fluoropyridin-3-yl)piperidine-2-carboxamide] | 0.67 | 1.0 | 1.0 | 0.71 | 1.1 | 1.1 | 0.07 | 0.1 | 0.1 | 0.00 | 0.0 | 0.0 |
| O=C(Nc1cccnc1)C1CCCN1c1nc2c(c(Nc3cc(C4CC4)[nH]n3)n1)CCC2 (single isomer, unassigned) [Compound 3a, 1-(4-(5-cyclopropyl-1H-pyrazol-3-ylamino)-6,7-dihydro-5H-cyclopenta[d]pyrimidin-2-yl)-N-(pyridin-3-yl)pyrrolidine-2-carboxamide] | 2.64 | 1.0 | 1.0 | 1.68 | 0.6 | 0.6 | 1.86 | 0.7 | 0.7 | 2.19 | 0.8 | 0.8 |
| O=C(Nc1cccnc1)C1CCCN1c1nc2c(c(Nc3cc(C4CC4)[nH]n3)n1)CCC2 (single isomer, unassigned) [Compound 3b, 1-(4-(5-cyclopropyl-1H-pyrazol-3-ylamino)-6,7-dihydro-5H-cyclopenta[d]pyrimidin-2-yl)-N-(pyridin-3-yl)pyrrolidine-2-carboxamide] | 2.25 | 1.0 | 1.0 | 1.70 | 0.8 | 0.8 | 0.57 | 0.3 | 0.3 | 0.02 | 0.0 | 0.0 |
| O=C(Nc1ccc(F)nc1)C1CCCCN1c1nc2c(c(Nc3cc(C4CC4)[nH]n3)n1)CCC2 (single isomer, unassigned) [Compound 9a, 1-(4-(3-cyclopropyl-1H-pyrazol-5-ylamino)-6,7-dihydro-5H-cyclopenta[d]pyrimidin-2-yl)-N-(6-fluoropyridin-3-yl)piperidine-2-carboxamide] | 1.24 | 1.0 | 1.0 | 1.26 | 1.0 | 1.0 | 0.53 | 0.4 | 0.4 | 0.02 | 0.0 | 0.0 |
